Test results: US20030162687A1, “Surfactants” (AJINOMOTO CO. INC., priority 2002, published 2003)

Legend:
[1] = Particle diameter distribution by sieve classification; format: physicochemical
Method: Content of the 280 mesh pass particles can generally be measured according to JIS Z8815 “General procedures for sieve analysis test”. For example, the content can be determined by sieving particles through a sieve having a mesh size of 280 (53 μm) with vibration using a vibrator, and measuring weight of particles passed through the sieve. The measurement can be carried out, for example, after vibration for 5 minutes with an amplitude of 2.0 mm, and a sieve according to the JIS standard (JIS Z 8801-1) can be used as the sieve. A specific example of the sieving method is given in the examples of the specification, and accordingly, those skilled in the art can measure a content of 280 mesh pass particles by referring to the aforementioned JIS general procedures and descriptions of the examples of the specification.
In the following example, sieve classification was carried out by vibrating a sieve for 5 minutes at an amplitude of 2.0 mm using a vibrator produced by Rctsch. Powdery samples were prepared in a conventional manner by using a spray dryer with sodium N-lauroyl-L-glutamate, sodium N-myristoyl-L-glutamate, sodium N-palmoyl-L-glutamate, and sodium N-cocoyl glycinate as salts of N-long-chain acyl amino acids. Drying was performed under the following conditions.
From the samples dried by the spray drier, 280 mesh pass cut samples, 200 mesh pass cut samples, and 140 mesh pass cut samples were prepared by using sieves. […] Samples that were not subjected to sieve classification were used as controls.

[2] = Flowability by powder tester Model PT-N, Carr's flowability index method; format: physicochemical
Method: As for evaluation of flowability, parameters of angle of repose, degree of compaction, spatula angle, and degree of aggregation were measured by using a powder tester Model PT-N produced by HOSOKAWA MICRON CORP. based on the method for evaluating Carr's flowability index.

[3] = 140 mesh pass cut sample (106 μm)
[4] = 200 mesh pass cut sample (75 μm)
[5] = 280 mesh pass cut sample (53 μm)
[6] = control, not subjected to sieve classification

Compound	Particle diameter distribution 53˜75 μm [1, 3]	Particle diameter distribution 75˜106 μm [1, 3]	Particle diameter distribution 106˜μm [1, 3]	Particle diameter distribution ˜53 μm [1, 3]	Particle diameter distribution 53˜75 μm [1, 4]	Particle diameter distribution 75˜106 μm [1, 4]	Particle diameter distribution 106˜μm [1, 4]	Particle diameter distribution ˜53 μm [1, 4]	Particle diameter distribution 53˜75 μm [1, 5]	Particle diameter distribution 75˜106 μm [1, 5]	Particle diameter distribution 106˜μm [1, 5]	Particle diameter distribution ˜53 μm [1, 5]	Particle diameter distribution 53˜75 μm [1, 6]	Particle diameter distribution 75˜106 μm [1, 6]	Particle diameter distribution 106˜μm [1, 6]	Particle diameter distribution ˜53 μm [1, 6]	Flowability: Angle of repose [2, 3]	Flowability: Degree of aggregation [2, 3]	Flowability: Degree of compaction [2, 3]	Flowability: Spatula angle [2, 3]	other results
CCCCCCCCCCCCCCCC(=O)N[C@@H](CCC(=O)[O-])C(=O)[O-].[Na+].[Na+] [Na palmoylglutamate, sodium N-palmoyl-L-glutamate]	0%	0%	100%	0%	0%	14.4%	81.3%	0%	4.8%	17.8%	77.4%	0%	4.5%	16.9%	73.3%	5.3%	32.0 °	26.4%	10.2%	49.2 °	Flowability: Angle of repose [2, 4]: 37.4 °; Flowability: Degree of aggregation [2, 4]: 20.6%; Flowability: Degree of compaction [2, 4]: 12.4%; Flowability: Spatula angle [2, 4]: 53.4 °; Flowability: Angle of repose [2, 5]: 35.5 °; Flowability: Degree of aggregation [2, 5]: 21.5%; Flowability: Degree of compaction [2, 5]: 12.4%; Flowability: Spatula angle [2, 5]: 52.4 °; Flowability: Angle of repose [2, 6]: 39.3 °; Flowability: Degree of aggregation [2, 6]: 17.6%; Flowability: Degree of compaction [2, 6]: 15.6%; Flowability: Spatula angle [2, 6]: 59.0 °
CCCCCCCCCCCCCC(=O)N[C@@H](CCC(=O)[O-])C(=O)[O-].[Na+].[Na+] [Na myristoylglutamate, sodium N-myristoyl-L-glutamate]	0%	0%	100%	0%	0%	15.1%	84.9%	0%	6.5%	14.1%	79.4%	0%	6.0%	13.0%	73.3%	7.7%	30.8 °	13.5%	11.3%	34.8 °	Flowability: Angle of repose [2, 4]: 30.1 °; Flowability: Degree of aggregation [2, 4]: 19.9%; Flowability: Degree of compaction [2, 4]: 11.1%; Flowability: Spatula angle [2, 4]: 37.0 °; Flowability: Angle of repose [2, 5]: 31.1 °; Flowability: Degree of aggregation [2, 5]: 15.9%; Flowability: Degree of compaction [2, 5]: 12.8%; Flowability: Spatula angle [2, 5]: 38.8 °; Flowability: Angle of repose [2, 6]: 26.6 °; Flowability: Degree of aggregation [2, 6]: 12.3%; Flowability: Degree of compaction [2, 6]: 16.5%; Flowability: Spatula angle [2, 6]: 49.3 °
CCCCCCCCCCCC(=O)N[C@@H](CCC(=O)[O-])C(=O)[O-].[Na+].[Na+] [Na lauroylglutamate, sodium N-lauroyl-L-glutamate]	0%	0%	100%	0%	0%	9.6%	90.4%	0%	8.3%	8.8%	82.9%	0%	7.9%	8.4%	79.0%	4.7%	29.1 °	34.6%	13.7%	29.5 °	Flowability index [2, 3]: 76.0; Flowability index [2, 4]: 77.0; Flowability: Angle of repose [2, 4]: 30.6 °; Flowability: Degree of aggregation [2, 4]: 15.7%; Flowability: Degree of compaction [2, 4]: 12.7%; Flowability: Spatula angle [2, 4]: 31.7 °; Flowability index [2, 5]: 78.0; Flowability: Angle of repose [2, 5]: 28.6 °; Flowability: Degree of aggregation [2, 5]: 12.5%; Flowability: Degree of compaction [2, 5]: 14.0%; Flowability: Spatula angle [2, 5]: 36.7 °; Flowability index [2, 6]: 67.0; Flowability: Angle of repose [2, 6]: 33.0 °; Flowability: Degree of aggregation [2, 6]: 15.1%; Flowability: Degree of compaction [2, 6]: 18.3%; Flowability: Spatula angle [2, 6]: 46.7 °
sodium N-cocoyl glycinate [Na cocoylglycinate]	0%	0%	100%	0%	0%	9.2%	90.8%	0%	6.5%	15.3%	78.2%	0%	4.4%	17.1%	73.0%	5.5%	28.6 °	27.9%	15.6%	43.4 °	Flowability: Angle of repose [2, 4]: 31.0 °; Flowability: Degree of aggregation [2, 4]: 28.1%; Flowability: Degree of compaction [2, 4]: 15.1%; Flowability: Spatula angle [2, 4]: 50.0 °; Flowability: Angle of repose [2, 5]: 33.0 °; Flowability: Degree of aggregation [2, 5]: 28.4%; Flowability: Degree of compaction [2, 5]: 14.5%; Flowability: Spatula angle [2, 5]: 56.0 °; Flowability: Angle of repose [2, 6]: 36.7 °; Flowability: Degree of aggregation [2, 6]: 32.8%; Flowability: Degree of compaction [2, 6]: 16.4%; Flowability: Spatula angle [2, 6]: 62.0 °
